From PubChem BioAssay (NCI)
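Results reflect a 48-hour exposure of cells in 96-well plates to compound at five concentrations. TGI marks complete inhibition of growth.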

Key:
Assay in all cases: growth of human tumour cells (NCI), 48 h
U251 CNS = test system: U251 CNS
K-562 leukemia = test system: K-562 leukemia
NCI-H226 lung = test system: NCI-H226 lung
SK-MEL-5 melanoma = test system: SK-MEL-5 melanoma
OVCAR-5 ovarian = test system: OVCAR-5 ovarian
EKVX NSCLC = test system: EKVX NSCLC
NCI-H522 lung = test system: NCI-H522 lung
PC-3 prostate = test system: PC-3 prostate
TK-10 renal = test system: TK-10 renal
CCRF-CEM leukemia = test system: CCRF-CEM leukemia
A549 NSCLC = test system: A549 NSCLC
HCC-2998 colon = test system: HCC-2998 colon
HT29 colon = test system: HT29 colon
MDA-MB-231 breast = test system: MDA-MB-231 breast
SN12C renal = test system: SN12C renal
NCI-H23 lung = test system: NCI-H23 lung
COLO 205 colon = test system: COLO 205 colon
OVCAR-8 ovarian = test system: OVCAR-8 ovarian
CAKI-1 renal = test system: CAKI-1 renal

SMILES	TGI (U251 CNS) [µM]	TGI (K-562 leukemia) [µM]	TGI (NCI-H226 lung) [µM]	TGI (SK-MEL-5 melanoma) [µM]	TGI (OVCAR-5 ovarian) [µM]	TGI (EKVX NSCLC) [µM]	TGI (NCI-H522 lung) [µM]	TGI (PC-3 prostate) [µM]	TGI (TK-10 renal) [µM]	TGI (CCRF-CEM leukemia) [µM]	TGI (A549 NSCLC) [µM]	TGI (HCC-2998 colon) [µM]	TGI (HT29 colon) [µM]	TGI (MDA-MB-231 breast) [µM]	TGI (SN12C renal) [µM]	TGI (NCI-H23 lung) [µM]	TGI (COLO 205 colon) [µM]	TGI (OVCAR-8 ovarian) [µM]	TGI (CAKI-1 renal) [µM]
CC1(C)OCC(C2OC3OC(C)(C)OC3C2c2ccccc2)O1 (configuration not stated)	> 100	> 100	93.6	33.2	> 100	> 100	> 100	98.7	> 100	> 100	> 100	> 100	> 100	> 100	> 100	97.2	54	> 100	–
O=c1oc(-c2ccc(O)cc2)cc2cc(O)ccc12	–	39.8	–	30.2	> 100	> 100	> 100	94	> 100	> 100	> 100	65.9	–	–	65.1	57.6	50.5	> 100	> 100
CC(=O)C(C)C(=O)N1C(=O)N(C)C2(C)N(C)C(=O)NC12C (configuration not stated)	> 100	–	–	> 100	> 100	> 100	> 100	–	> 100	–	> 100	> 100	> 100	> 100	> 100	> 100	> 100	–	> 100
O=C(Nc1cccc(F)c1)c1cc2ccc(O)cc2oc1=Nc1cccc(F)c1	> 100	> 100	–	14.7	> 100	26.3	13	> 100	–	6.72	> 100	> 100	> 100	–	> 100	6.12	> 100	6.32	> 100
O=c1[nH]c(SCc2cccc([N+](=O)[O-])c2)nc2nc[nH]c12	> 100	> 100	> 100	> 100	> 100	> 100	> 100	> 100	> 100	> 100	> 100	–	> 100	> 100	> 100	> 100	> 100	> 100	> 100
COc1ccc2cc(CNCCCCCCCCNCc3ccc4cc(OC)ccc4c3)ccc2c1	6.66	47.7	> 100	> 100	10.1	–	69.4	6.91	5.2	7.27	> 100	31.8	8.46	> 100	–	> 100	29.6	–	> 100
Clc1ccc(-c2cc(-c3cc4cc(Br)ccc4nc3Cl)on2)cc1	–	> 50	27.4	19.6	> 50	36.2	21.8	> 50	–	36.2	> 50	23.9	> 50	–	> 50	46.5	15.4	> 50	> 50
COC1(C2c3ccccc3CCN2C(=O)OC(C)(C)C)C(=O)C(c2ccccc2)=C1N(C)C (configuration not stated)	> 100	–	59.6	58.9	> 100	> 100	56.8	82.4	> 100	> 100	> 100	–	43.9	–	39.9	71.6	35.4	> 100	> 100
CCOP(=O)(OCC)/C(C#N)=C/c1ccccn1	> 100	> 100	> 100	> 100	> 100	> 100	> 100	–	> 100	> 100	> 100	> 100	> 100	> 100	> 100	> 100	> 100	> 100	> 100
CO/N=C\c1ccc2c(c1)Sc1ccccc1O2	> 100	> 100	> 100	–	> 100	> 100	–	> 100	> 100	–	> 100	> 100	> 100	> 100	> 100	> 100	> 100	> 100	> 100
O=C1NC(Nc2ccccc2)=N/C1=C\c1c(Cl)cccc1Cl	37.6	> 100	41.6	37.6	> 100	47.3	> 100	39.6	47.2	54.1	52.1	58.5	> 100	–	46.6	> 100	> 100	65.1	> 100
COC(=O)C1Cc2c(OC)ccc(OC)c2C(O)C1C(=O)OC (configuration not stated)	> 100	> 100	> 100	> 100	> 100	> 100	> 100	> 100	> 100	> 100	> 100	–	> 100	> 100	> 100	> 100	> 100	> 100	> 100
CN=C(Nc1ccc(OC)c2ccccc12)SC	> 10	> 10	–	> 10	> 10	–	> 10	> 10	> 10	> 10	> 10	> 10	> 10	> 10	> 10	> 10	> 10	> 10	> 10
N#CCCN(CCC#N)c1ccc(/C=C2\N=C(c3ccccc3)N(c3ccc(C(=O)O)cc3)C2=O)cc1	> 100	> 100	95.5	> 100	> 100	> 100	–	> 100	> 100	–	> 100	–	> 100	> 100	> 100	–	> 100	73.1	–
CC1(C)CC(=O)c2c(nc3c(ccc4ccccc43)c2-c2ccc(NC(=O)CCC(=O)Nc3ccc(-c4c5c(nc6c4ccc4ccccc46)CC(C)(C)CC5=O)cc3)cc2)C1	> 100	> 100	> 100	> 100	> 100	> 100	> 100	> 100	> 100	> 100	> 100	–	> 100	> 100	> 100	–	> 100	> 100	> 100
CCC(=O)N/S(=N/S(=O)(=O)c1ccccc1)C(Cl)(Cl)Cl (configuration not stated)	> 100	> 100	> 100	> 100	> 100	> 100	–	> 100	> 100	> 100	> 100	> 100	> 100	> 100	> 100	> 100	> 100	> 100	–
Cc1ccc(O)c(C2=CC3=NNC(=O)C3C(c3cccc(Cl)c3)C2)c1 (configuration not stated)	> 100	> 100	–	> 100	> 100	> 100	–	> 100	57.5	> 100	> 100	44.5	63.9	> 100	> 100	> 100	30.4	77.3	> 100
O=C1CCCC/C1=C\c1ccc([N+](=O)[O-])cc1	29.6	32.1	–	> 100	> 100	> 100	30.2	4.46	26.3	30.4	95.9	27.2	> 100	52.6	30.9	54.8	32.3	37.1	35.7
Oc1ccc(/C=C/c2cccc(/C=C/c3ccc(O)c(O)c3)n2)cc1O	> 100	49.6	–	15.8	23.6	25.5	–	> 100	23.6	> 100	22.2	33.1	24.5	76.7	27.5	–	28.9	20.8	90.5
O=C(N=Nc1ccc(Cl)cc1Cl)NNc1ccc(Cl)cc1Cl	36.2	72.6	48.2	29.2	44	–	41.9	34.8	55.5	59.6	46.7	23.9	75.3	57.8	37.4	53	–	37.6	52.9
c1ccc2cc3c(NC4=NCCO4)cccc3cc2c1	> 100	> 100	> 100	> 100	> 100	> 100	> 100	> 100	> 100	81.6	> 100	–	80.4	> 100	> 100	> 100	> 100	> 100	> 100
CC(C)(C)OC(=O)N1NC(c2ccccc2)CC1c1ccccc1 (configuration not stated)	–	> 100	88.2	45.5	> 100	> 100	> 100	–	> 100	71.5	32.9	> 100	> 100	–	> 100	40.4	41.2	> 100	> 100
O=C1C[C@@]23CCC4(CC2CCC[C@H]3O1)OCCO4 (some centres not stated)	> 100	> 100	> 100	> 100	> 100	> 100	> 100	> 100	–	–	> 100	> 100	> 100	> 100	> 100	> 100	> 100	> 100	–
C1CCCCC2(CCCCCCCCC3(CCC1)SCCS3)SCCS2	> 100	> 100	> 100	> 100	> 100	> 100	> 100	> 100	> 100	–	> 100	> 100	> 100	–	> 100	> 100	> 100	> 100	> 100
O=c1[nH]nc(Cc2ccccc2)n1/N=C/c1ccco1	> 100	> 100	> 100	–	> 100	> 100	–	> 100	–	> 100	> 100	> 100	> 100	> 100	> 100	> 100	> 100	> 100	> 100
Nc1ccccc1C#CC(=O)c1cccc(C(F)(F)F)c1	3.95	> 100	18	6.17	23.7	38	2.36	12	39.1	4.42	33.6	–	19.2	4.97	4.81	4.71	3.87	–	13.5
N#Cc1c(=O)c2ccccc2n2ccccc12	> 100	> 100	> 100	> 100	–	–	> 100	> 100	> 100	> 100	> 100	> 100	> 100	> 100	> 100	> 100	> 100	> 100	> 100
Cc1ccc(S(=O)(=O)CNC(=O)C(O)(O)C(F)(F)F)cc1	> 100	> 100	–	> 100	> 100	> 100	> 100	> 100	> 100	> 100	> 100	> 100	> 100	> 100	> 100	> 100	> 100	> 100	> 100
